Where two headings read alike, the source gives them in different places.
Experiments:
[1] = Human Liver Microsomal (HLM) stability assay; assay type: in vitro ADME
Procedure: Liver homogenates provide a measure of a compounds inherent vulnerability to Phase I (oxidative) enzymes, including CYP450s (e.g. CYP2C8, CYP2D6, CYP1A, CYP3A4, CYP2E1), esterases, amidases and flavin monooxygenases (FMOs).
The half life (T½) of test compounds was determined, on exposure to Human Liver Microsomes, by monitoring their disappearance over time by LC-MS. Compounds at 0.001 mM were incubated at for 40 min at 37° C., 0.1 M Tris-HCl, pH 7.4 with human microsomal sub-cellular fraction of liver at 0.25 mg/mL protein and saturating levels of NADPH as co-factor. At timed intervals, acetonitrile was added to test samples to precipitate protein and stop metabolism. Samples were centrifuged and analysed for parent compound using analytical Method A (see Materials & Methods).

[2] = tested on: MDA468; test: Monolayer proliferation assay Protocol 1 (propidium iodide); assay type: cell-based, human; conditions: 4 days, mean of duplicate experiments
Procedure: (§1) In vitro evaluation of compounds for anticancer activity in a panel of 12 human tumour cell lines in a monolayer proliferation assay were carried out at the Oncotest Testing Facility, Institute for Experimental Oncology, Oncotest GmbH, Freiburg.
(§2) A modified propidium iodide assay was used to assess the effects of the test compound(s) on the growth of twelve human tumor cell lines (Dengler et al, 1995).
(§3) Briefly, cells were harvested from exponential phase cultures by trypsinization, counted and plated in 96 well flat-bottomed microtitre plates at a cell density dependent on the cell line (5-10.000 viable cells/well). […] Each concentration was plated in triplicate. 39-Desmethoxyrapamycin was applied in two concentrations (0.001 mM and 0.01 mM).
(§4) Growth inhibition was expressed as treated/control×100 (% TIC). For active compounds, IC50 & IC70 values were estimated by plotting compound concentration versus cell viability.
(§5) In vitro evaluation of 39-desmethoxyrapamycin for anticancer activity in a panel of 12 human tumour cell lines in a monolayer proliferation assay was carried out as described as Protocol 1 in the general methods above using a modified propidium iodide assay.

[3] = tested on: MCF7; test: as above; assay type: cell-based, human; conditions: 4 days, mean of duplicate experiments
Procedure: as §1, §2, §3, §4, §5

[4] = tested on: 394NL; test: as above; assay type: cell-based, human; conditions: 4 days, mean of duplicate experiments
Procedure: as §1, §2, §3, §4, §5

[5] = tested on: OVCAR3; test: as above; assay type: cell-based, human; conditions: 4 days, mean of duplicate experiments
Procedure: as §1, §2, §3, §4, §5

[6] = tested on: SF268; test: as above; assay type: cell-based, human; conditions: 4 days, mean of duplicate experiments
Procedure: as §1, §2, §3, §4, §5

[7] = tested on: DU145; test: as above; assay type: cell-based, human; conditions: 4 days, mean of duplicate experiments
Procedure: as §1, §2, §3, §4, §5

[8] = tested on: 1138L; test: as above; assay type: cell-based, human; conditions: 4 days, mean of duplicate experiments
Procedure: as §1, §2, §3, §4, §5

[9] = tested on: LNCAP; test: as above; assay type: cell-based, human; conditions: 4 days, mean of duplicate experiments
Procedure: as §1, §2, §3, §4, §5

[10] = tested on: H460; test: as above; assay type: cell-based, human; conditions: 4 days, mean of duplicate experiments
Procedure: as §1, §2, §3, §4, §5

[11] = tested on: MDA231; test: as above; assay type: cell-based, human; conditions: 4 days, mean of duplicate experiments
Procedure: as §1, §2, §3, §4, §5

[12] = tested on: A498; test: as above; assay type: cell-based, human; conditions: 4 days, mean of duplicate experiments
Procedure: as §1, §2, §3, §4, §5

[13] = tested on: 251L; test: as above; assay type: cell-based, human; conditions: 4 days, mean of duplicate experiments
Procedure: as §1, §2, §3, §4, §5

[14] = tested on: panel of 12 human tumour cell lines; test: Monolayer proliferation assay Protocol 1, mean across the cell lines tested; assay type: cell-based
Procedure: as §1, §2, §3, §4, §5

SMILES: COC1CC2CCC(C)C(O)(O2)C(=O)C(=O)N2CCCCC2C(=O)OC(C(C)CC2CCC(O)CC2)CC(=O)C(C)C=C(C)C(O)C(OC)C(=O)C(C)CC(C)C=CC=CC=C1C (stereo not drawn) [39-desmethoxyrapamycin]
- metabolic stability compared to rapamycin [1]: increased metabolic stability
- HLM stability: T½ min ([1]; 0.001 mM, 0.25 mg/mL protein, NADPH, 37° C.): 59 min
- Test/Control (%) at drug concentration ([2]; MDA468, 1 μM): 65%
- Test/Control (%) at drug concentration ([2]; MDA468, 10 μM): 13.5%
- Test/Control (%) at drug concentration ([3]; MCF7, 1 μM): 92.5%
- Test/Control (%) at drug concentration ([3]; MCF7, 10 μM): 18.5%
- Test/Control (%) at drug concentration ([4]; 1 μM): 48%
- Test/Control (%) at drug concentration ([4]; 10 μM): 40.5%
- Test/Control (%) at drug concentration ([5]; OVCAR3, 1 μM): 77.5%
- Test/Control (%) at drug concentration ([5]; OVCAR3, 10 μM): 62%
- Test/Control (%) at drug concentration ([6]; SF268, 1 μM): 57.5%
- Test/Control (%) at drug concentration ([6]; SF268, 10 μM): 23%
- Test/Control (%) at drug concentration ([7]; DU145, 1 μM): 65.5%
- Test/Control (%) at drug concentration ([7]; DU145, 10 μM): 44.5%
- Test/Control (%) at drug concentration ([8]; 1 μM): 52%
- Test/Control (%) at drug concentration ([8]; 10 μM): 9.5%
- Test/Control (%) at drug concentration ([9]; 1 μM): 74.5%
- Test/Control (%) at drug concentration ([9]; 10 μM): 28.5%
- Test/Control (%) at drug concentration ([10]; H460, 1 μM): 71%
- Test/Control (%) at drug concentration ([10]; H460, 10 μM): 55.5%
- Test/Control (%) at drug concentration ([11]; MDA231, 1 μM): 68%
- Test/Control (%) at drug concentration ([11]; MDA231, 10 μM): 37.5%
- Test/Control (%) at drug concentration ([12]; A498, 1 μM): 62.5%
- Test/Control (%) at drug concentration ([12]; A498, 10 μM): 43.5%
- Test/Control (%) at drug concentration ([13]; 1 μM): 86%
- Test/Control (%) at drug concentration ([13]; 10 μM): 32.5%
- IC50 [14]: 3.25 µM
- Mean IC70 [14]: 6.95 µM

SMILES: CO[C@H]1C[C@@H]2CC[C@@H](C)[C@@](O)(O2)C(=O)C(=O)N2CCCC[C@H]2C(=O)O[C@H]([C@H](C)C[C@@H]2CC[C@@H](O)[C@H](OC)C2)CC(=O)[C@H](C)/C=C(\C)[C@@H](O)[C@@H](OC)C(=O)[C@H](C)C[C@H](C)/C=C/C=C/C=C/1C [Rapamycin]
- half-life at 0.001 mM ([1]; human, liver microsomes, pH 7.4, 0.001 mM, 0.25 mg/mL protein, NADPH, 37° C., read-out: HLM stability: T½ min): 40 min
- Test/Control (%) at drug concentration ([2]; MDA468, 1 μM): 56.5%
- Test/Control (%) at drug concentration ([2]; MDA468, 10 μM): 32%
- Test/Control (%) at drug concentration ([3]; MCF7, 1 μM): 68.5%
- Test/Control (%) at drug concentration ([3]; MCF7, 10 μM): 26.5%
- Test/Control (%) at drug concentration ([4]; 1 μM): 45%
- Test/Control (%) at drug concentration ([4]; 10 μM): 44%
- Test/Control (%) at drug concentration ([5]; OVCAR3, 1 μM): 69%
- Test/Control (%) at drug concentration ([5]; OVCAR3, 10 μM): 69.5%
- Test/Control (%) at drug concentration ([6]; SF268, 1 μM): 53.5%
- Test/Control (%) at drug concentration ([6]; SF268, 10 μM): 46%
- Test/Control (%) at drug concentration ([7]; DU145, 1 μM): 50.5%
- Test/Control (%) at drug concentration ([7]; DU145, 10 μM): 54%
- Test/Control (%) at drug concentration ([8]; 1 μM): 42%
- Test/Control (%) at drug concentration ([8]; 10 μM): 21.5%
- Test/Control (%) at drug concentration ([9]; 1 μM): 61%
- Test/Control (%) at drug concentration ([9]; 10 μM): 34%
- Test/Control (%) at drug concentration ([10]; H460, 1 μM): 67%
- Test/Control (%) at drug concentration ([11]; MDA231, 1 μM): 67%
- Test/Control (%) at drug concentration ([11]; MDA231, 10 μM): 63.5%
- Test/Control (%) at drug concentration ([12]; A498, 1 μM): 58.5%
- Test/Control (%) at drug concentration ([12]; A498, 10 μM): 48.5%
- Test/Control (%) at drug concentration ([13]; 1 μM): 75.5%
- Test/Control (%) at drug concentration ([13]; 10 μM): 40%
- Mean IC70 [14]: 9.1 µM
- IC50 ([14]; Homo sapiens): 3.5 µM

Source: patent US20100061994A1, “MEDICAL USES OF 39-DESMETHOXYRAPAMYCIN AND ANALOGUES THEREOF” (priority 2005, published 2010)
